# Test results published in US6737383B1, “Herbicidal oxadiazolidines” (priority 1999, dated 2004).
# Assays:
# surinam grass = assay: Test B pre/postemergence surinam grass; type: in vivo, Brachiaria decumbens
# How it was run: (§1)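 Herbicidal effect was estimated by eye on a ten-point control scale after plants spent twelve to sixteen days in a greenhouse following soil or foliar treatment. Foliar sprays targeted plants at one to four leaves; all doses were formulated in a non-phytotoxic solvent with surfactant.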
# crabgrass = assay: Test B pre/postemergence crabgrass; type: in vivo, Digitaria sanguinalis
# How it was run: as §1
# cocklebur = assay: Test B pre/postemergence cocklebur; type: in vivo, Xanthium strumarium
# How it was run: as §1
# corn = assay: Test B pre/postemergence corn; type: in vivo, Zea mays
# How it was run: as §1
# wild oat = assay: Test B pre/postemergence wild oat; type: in vivo, Avena fatua
# How it was run: as §1
# smallflower flatsedge = assay: Test B flood test smallflower flatsedge; type: in vivo, Cyperus difformis
# How it was run: (§2)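 Flood test on plants grown to the 2-leaf stage; treated plants kept in greenhouse twelve to sixteen days, then visually rated against controls on a 0 (no effect) to 10 (complete control) scale.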
# bedstraw = assay: Test B pre/postemergence bedstraw; type: in vivo, Galium aparine; conditions: Postemergence
# How it was run: as §1
# soybean = assay: Test B pre/postemergence soybean; type: in vivo, Glycine max
# How it was run: as §1
# wheat = assay: Test B pre/postemergence wheat; type: in vivo, Triticum aestivum
# How it was run: as §1
# rape = assay: Test B pre/postemergence rape; type: in vivo, Brassica napus
# How it was run: as §1
# purple nutsedge = assay: Test B pre/postemergence purple nutsedge; type: in vivo, Cyperus rotundus
# How it was run: as §1
# velvetleaf = assay: Test B pre/postemergence velvetleaf; type: in vivo, Abutilon theophrasti
# How it was run: as §1
# pigweed = assay: Test B pre/postemergence pigweed; type: in vivo, Amaranthus retroflexus
# How it was run: as §1
# blackgrass = assay: Test B pre/postemergence blackgrass; type: in vivo, Alopecurus myosuroides
# How it was run: as §1
# sugar beet = assay: Test B pre/postemergence sugar beet; type: in vivo, Beta vulgaris
# How it was run: as §1
# bamyardgrass = assay: Test B flood test barnyardgrass; type: in vivo, Echinochloa crus-galli
# How it was run: as §2
# [1] = Postemergence, Rate 62 g/ha, scale 0 to 10, 0 is no effect, 10 is complete control
# [2] = Postemergence, Rate 125 g/ha, scale of 0 to 10 where 0 is no effect and 10 is complete control
# [3] = Postemergence, Rate 250 g/ha, scale of 0 to 10, 0 is no effect, 10 is complete control
# [4] = Postemergence, Rate 500 g/ha, scale of 0 to 10 where 0 is no effect and 10 is complete control
# [5] = Preemergence, Rate 62 g/ha, scale 0 to 10 (0 no effect, 10 complete control)
# [6] = Preemergence, Rate 125 g/ha, scale of 0 to 10 where 0 is no effect and 10 is complete control
# [7] = Preemergence, Rate 250 g/ha, scale 0 to 10 (0 no effect, 10 complete control)
# [8] = Preemergence, Rate 500 g/ha, scale of 0 to 10 where 0 is no effect and 10 is complete control
# [9] = Rate 62 g/ha, flood test species, Pre-emergence, visual evaluation after twelve to sixteen days
# [10] = Rate 125 g/ha, under heading Pre-emergence, flood test species, visual evaluation after twelve to sixteen days
# [11] = Rate 250 g/ha, Pre-emergence (flood test species), scale 0 to 10, 0 is no effect, 10 is complete control
# [12] = Rate 500 g/ha, Pre-emergence section of Table B, 0 to 10 scale (0 no effect, 10 complete control)
compound,measurement,setting,value
CCOC(Cn1c(=O)on(C(=O)N(c2ccccc2)C(C)C)c1=O)OCC [Compound 632],"Plant response rating, B. signalgrass",surinam grass; [1],0
same,"Plant response rating, B. signalgrass",surinam grass; [2],0
same,B. signalgrass plant response rating,surinam grass; [3],2
same,"Plant response rating, B. signalgrass",surinam grass; [4],6
same,B. signalgrass plant response rating,surinam grass; [5],0
same,B. signalgrass plant response rating,surinam grass; [6],3
same,"Plant response rating, B. signalgrass",surinam grass; [7],6
same,"Plant response rating, B. signalgrass",surinam grass; [8],10
same,"Plant response rating, Crabgrass",crabgrass; [1],0
same,"Plant response rating, Crabgrass",crabgrass; [2],6
same,Crabgrass plant response rating,crabgrass; [3],8
same,Crabgrass plant response rating,crabgrass; [5],2
same,Crabgrass plant response rating,crabgrass; [6],7
same,"Plant response rating, Crabgrass",crabgrass; [7],8
same,"Plant response rating, Crabgrass",crabgrass; [8],9
same,"Plant response rating, Cocklebur",cocklebur; [1],0
same,"Plant response rating, Cocklebur",cocklebur; [2],0
same,Cocklebur plant response rating,cocklebur; [3],0
same,"Plant response rating, Cocklebur",cocklebur; [4],0
same,Cocklebur plant response rating,cocklebur; [5],0
same,Cocklebur plant response rating,cocklebur; [6],0
same,"Plant response rating, Cocklebur",cocklebur; [7],0
same,"Plant response rating, Cocklebur",cocklebur; [8],0
same,"Plant response rating, Corn",corn; [1],0
same,"Plant response rating, Corn",corn; [2],3
same,Corn plant response rating,corn; [3],3
same,"Plant response rating, Corn",corn; [4],5
same,Corn plant response rating,corn; [5],0
same,Corn plant response rating,corn; [6],4
same,"Plant response rating, Corn",corn; [7],4
same,"Plant response rating, Corn",corn; [8],5
same,"Plant response rating, Wild oats",wild oat; [1],0
same,"Plant response rating, Wild oats",wild oat; [2],0
same,Wild oats plant response rating,wild oat; [3],0
same,Wild oats plant response rating,wild oat; [5],0
same,Wild oats plant response rating,wild oat; [6],2
same,"Plant response rating, Wild oats",wild oat; [7],3
same,"Plant response rating, Wild oats",wild oat; [8],3
same,"Plant response rating, S. Flatsedge (0 to 10 scale, 0 is no effect, 10 is complete control)",smallflower flatsedge; [9],0
same,"S. Flatsedge plant response rating (0 to 10 scale, 0 is no effect, 10 is complete control)",smallflower flatsedge; [10],0
same,S. Flatsedge plant response rating,smallflower flatsedge; [11],0
same,S. Flatsedge plant response rating,smallflower flatsedge; [12],0
same,"Plant response rating, Bedstraw","bedstraw; Rate 62 g/ha, scale 0 to 10, 0 is no effect, 10 is complete control",0
same,"Plant response rating, Bedstraw","bedstraw; Rate 125 g/ha, scale of 0 to 10 where 0 is no effect and 10 is complete control",0
same,Bedstraw plant response rating,"bedstraw; Rate 250 g/ha, scale of 0 to 10, 0 is no effect, 10 is complete control",0
same,"Plant response rating, Soybean",soybean; [1],1
same,"Plant response rating, Soybean",soybean; [2],2
same,Soybean plant response rating,soybean; [3],4
same,Soybean plant response rating,soybean; [5],0
same,Soybean plant response rating,soybean; [6],0
same,"Plant response rating, Soybean",soybean; [7],0
same,"Plant response rating, Soybean",soybean; [8],0
same,"Plant response rating, Wheat",wheat; [1],0
same,"Plant response rating, Wheat",wheat; [2],0
same,Wheat plant response rating,wheat; [3],0
same,Wheat plant response rating,wheat; [5],0
same,Wheat plant response rating,wheat; [6],0
same,"Plant response rating, Wheat",wheat; [7],0
same,"Plant response rating, Wheat",wheat; [8],0
same,"Plant response rating, Rape",rape; [1],0
same,"Plant response rating, Rape",rape; [2],0
same,Rape plant response rating,rape; [3],0
same,"Plant response rating, Rape",rape; [4],0
same,Rape plant response rating,rape; [5],0
same,Rape plant response rating,rape; [6],0
same,"Plant response rating, Rape",rape; [7],0
same,"Plant response rating, Rape",rape; [8],4
same,"Plant response rating, Nutsedge",purple nutsedge; [1],0
same,"Plant response rating, Nutsedge",purple nutsedge; [2],0
same,Nutsedge plant response rating,purple nutsedge; [3],0
same,Nutsedge plant response rating,purple nutsedge; [5],0
same,Nutsedge plant response rating,purple nutsedge; [6],0
same,"Plant response rating, Nutsedge",purple nutsedge; [7],0
same,"Plant response rating, Nutsedge",purple nutsedge; [8],0
same,"Plant response rating, Velvetleaf",velvetleaf; [1],0
same,"Plant response rating, Velvetleaf",velvetleaf; [2],0
same,Velvetleaf plant response rating,velvetleaf; [3],0
same,Velvetleaf plant response rating,velvetleaf; [5],0
same,Velvetleaf plant response rating,velvetleaf; [6],1
same,"Plant response rating, Velvetleaf",velvetleaf; [7],6
same,"Plant response rating, Velvetleaf",velvetleaf; [8],7
same,"Plant response rating, Redroot pigweed",pigweed; [1],0
same,"Plant response rating, Redroot pigweed",pigweed; [2],0
same,Redroot pigweed plant response rating,pigweed; [3],0
same,Redroot pigweed plant response rating,pigweed; [5],0
same,Redroot pigweed plant response rating,pigweed; [6],0
same,"Plant response rating, Redroot pigweed",pigweed; [7],6
same,"Plant response rating, Redroot pigweed",pigweed; [8],10
same,"Plant response rating, Blackgrass",blackgrass; [1],0
same,"Plant response rating, Blackgrass",blackgrass; [2],4
same,Blackgrass plant response rating,blackgrass; [3],6
same,"Plant response rating, Blackgrass",blackgrass; [4],8
same,Blackgrass plant response rating,blackgrass; [5],2
same,Blackgrass plant response rating,blackgrass; [6],4
same,"Plant response rating, Blackgrass",blackgrass; [7],7
same,"Plant response rating, Blackgrass",blackgrass; [8],10
same,"Plant response rating, Sugarbeets",sugar beet; [1],0
same,"Plant response rating, Sugarbeets",sugar beet; [2],0
same,Sugarbeets plant response rating,sugar beet; [3],0
same,Sugarbeets plant response rating,sugar beet; [5],0
same,Sugarbeets plant response rating,sugar beet; [6],0
same,"Plant response rating, Sugarbeets",sugar beet; [7],0
same,"Plant response rating, Sugarbeets",sugar beet; [8],0
same,"Plant response rating, Barnyardgrass (0 to 10 scale, 0 is no effect, 10 is complete control)",bamyardgrass; [9],0
same,"Barnyardgrass plant response rating (0 to 10 scale, 0 is no effect, 10 is complete control)",bamyardgrass; [10],0
same,Barnyardgrass plant response rating,bamyardgrass; [11],0
same,Barnyardgrass plant response rating,bamyardgrass; [12],0
